Reference: patent US20170190671A1, “BIS(ARYL)CATECHOL DERIVATIVES AS HERBICIDES” (E I DU PONT DE NEMOURS AND COMPANY, priority 2014, published 2017)

Key:
Assay type in all cases: in vivo
[1] = tested on: barnyardgrass (Echinochloa crus-galli); assay: Test B flooded paddy; conditions: Echinochloa crus-galli, 336 h; 250 g ai/ha, Flood, 13 to 15 days, scale 0 (no effect) to 100 (complete control); read-out: Plant response rating, Barnyardgrass
Procedure, shortened: (§1)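 Greenhouse pots flooded to 3 cm above soil at time of treatment received compound via the water, which stayed at that level.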

[2] = tested on: ducksalad (Heteranthera limosa); assay: Test B flooded paddy; conditions: Heteranthera limosa, 336 h; 250 g ai/ha, Flood, 13 to 15 days, scale 0 (no effect) to 100 (complete control); read-out: Plant response rating, Ducksalad
Procedure, shortened: as §1

[3] = tested on: rice (Oryza sativa); assay: Test B flooded paddy; conditions: Oryza sativa, 336 h; 250 g ai/ha, Flood, 13 to 15 days, scale 0 (no effect) to 100 (complete control); read-out: Plant response rating, Rice
Procedure, shortened: as §1

[4] = tested on: sedge, umbrella (small-flower umbrella sedge, Cyperus difformis); assay: Test B flooded paddy; conditions: Cyperus difformis, 336 h; 250 g ai/ha, Flood, 13 to 15 days, scale 0 (no effect) to 100 (complete control); read-out: Plant response rating, Sedge, Umbrella
Procedure, shortened: as §1

[5] = tested on: Italian ryegrass (Lolium multiflorum); assay: Test A preemergence; conditions: Lolium multiflorum, pre-emergence, 240 h
Procedure, shortened: (§2)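 Pre- and postemergence greenhouse screen. Soil: loam + sand. Spray carrier: solvent mixture, non-phytotoxic, with surfactant. Post timing at 1–2 leaves, height 2–10 cm. Readout: visual injury on a 0–100 scale roughly 10 days after application, untreated plants as reference.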

[6] = tested on: barnyardgrass (Echinochloa crus-galli); assay: Test A preemergence; conditions: Echinochloa crus-galli, pre-emergence, 240 h
Procedure, shortened: as §2

[7] = tested on: giant foxtail (Setaria faberii); assay: Test A preemergence; conditions: Setaria faberi, pre-emergence, 240 h
Procedure, shortened: as §2

[8] = tested on: kochia (Kochia scoparia); assay: Test A preemergence; conditions: Bassia scoparia, pre-emergence, 240 h
Procedure, shortened: as §2

[9] = tested on: pigweed (Amaranthus retroflexus); assay: Test A preemergence; conditions: Amaranthus retroflexus, pre-emergence, 240 h
Procedure, shortened: as §2

[10] = tested on: ragweed (common ragweed, Ambrosia elatior); assay: Test A preemergence; conditions: Ambrosia artemisiifolia, pre-emergence, 240 h
Procedure, shortened: as §2

[11] = tested on: Italian ryegrass (Lolium multiflorum); assay: Test A postemergence; conditions: Lolium multiflorum, post-emergence, 240 h, 0 to 100 scale, read-out: Plant response rating, Ryegrass, Italian
Procedure, shortened: as §2

[12] = tested on: barnyardgrass (Echinochloa crus-galli); assay: Test A postemergence; conditions: Echinochloa crus-galli, post-emergence, 240 h, 0 to 100 scale, read-out: Plant response rating, Barnyardgrass
Procedure, shortened: as §2

[13] = tested on: blackgrass (Alopecurus myosuroides); assay: Test A postemergence; conditions: Alopecurus myosuroides, post-emergence, 240 h, 0 to 100 scale, read-out: Plant response rating, Blackgrass
Procedure, shortened: as §2

[14] = tested on: corn (Zea mays); assay: Test A postemergence; conditions: Zea mays, post-emergence, 240 h, 0 to 100 scale
Procedure, shortened: as §2

[15] = tested on: galium (catchweed bedstraw, Galium aparine); assay: Test A postemergence; conditions: Galium, post-emergence, 240 h, 0 to 100 scale, read-out: Plant response rating, Galium
Procedure, shortened: as §2

[16] = tested on: giant foxtail (Setaria faberii); assay: Test A postemergence; conditions: Setaria faberi, post-emergence, 240 h, 0 to 100 scale, read-out: Plant response rating, Foxtail, Giant
Procedure, shortened: as §2

[17] = tested on: kochia (Kochia scoparia); assay: Test A postemergence; conditions: Bassia scoparia, post-emergence, 240 h, 0 to 100 scale, read-out: Plant response rating, Kochia
Procedure, shortened: as §2

[18] = tested on: pigweed (Amaranthus retroflexus); assay: Test A postemergence; conditions: Amaranthus retroflexus, post-emergence, 240 h, 0 to 100 scale, read-out: Plant response rating, Pigweed
Procedure, shortened: as §2

[19] = tested on: ragweed (common ragweed, Ambrosia elatior); assay: Test A postemergence; conditions: Ambrosia artemisiifolia, post-emergence, 240 h, 0 to 100 scale, read-out: Plant response rating, Ragweed
Procedure, shortened: as §2

[20] = tested on: wheat (Triticum aestivum); assay: Test A postemergence; conditions: Triticum aestivum, post-emergence, 240 h, 0 to 100 scale, read-out: Plant response rating, Wheat
Procedure, shortened: as §2

[21] = tested on: Italian ryegrass (Lolium multiflorum); assay: Test C postemergence; conditions: Lolium multiflorum, post-emergence, 336 h, Postemergence, scale 0 to 100, read-out: Plant response rating, Ryegrass, Italian
Procedure, shortened: (§3)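 After preemergence treatment of seeds in loam-sand soil or foliar treatment at the 1- to 4-leaf stage of plants in peat/vermiculite medium, pots were kept 13-15 days in the greenhouse. Each was then scored visually, 0 meaning no effect and 100 complete control.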

[22] = tested on: wild oat (Avena fatua); assay: Test C postemergence; conditions: Avena fatua, post-emergence, Postemergence, scale 0 to 100, read-out: Plant response rating, Oat, Wild
Procedure, shortened: as §3

FC(F)c1cccc(Oc2ncc(Cl)cn2)c1Oc1ncc(Cl)cn1 [Compound 46, 2,2′-[[3-(difluoromethyl)-1,2-phenylene]bis(oxy)]bis[5-chloropyrimidine]]
pest or weed control at 250 g/ha [1]: 0%
pest or weed control at 250 g/ha [2]: 80%
plant injury at 250 g/ha [3]: 10%
pest or weed control at 250 g/ha [4]: 65%
pest or weed control at 125 g/ha ([5]; 125 g ai/ha, 0 to 100 scale (0 no effect, 100 complete control), read-out: Ryegrass, Italian plant response rating): 30%
pest or weed control at 500 g/ha ([5]; 500 g ai/ha, 0 to 100 scale, read-out: Plant response rating, Ryegrass, Italian): 80%
pest or weed control at 125 g/ha ([6]; 125 g ai/ha, 0 to 100 scale (0 no effect, 100 complete control), read-out: Barnyardgrass plant response rating): 90%
pest or weed control at 500 g/ha ([6]; 500 g ai/ha, 0 to 100 scale, read-out: Plant response rating, Barnyardgrass): 100%
pest or weed control at 125 g/ha ([7]; 125 g ai/ha, 0 to 100 scale (0 no effect, 100 complete control), read-out: Foxtail, Giant plant response rating): 100%
pest or weed control at 500 g/ha ([7]; 500 g ai/ha, 0 to 100 scale, read-out: Plant response rating, Foxtail, Giant): 100%
pest or weed control at 125 g/ha ([8]; 125 g ai/ha, 0 to 100 scale (0 no effect, 100 complete control), read-out: Kochia plant response rating): 100%
pest or weed control at 500 g/ha ([8]; 500 g ai/ha, 0 to 100 scale, read-out: Plant response rating, Kochia): 100%
pest or weed control at 125 g/ha ([9]; 125 g ai/ha, 0 to 100 scale (0 no effect, 100 complete control), read-out: Pigweed plant response rating): 100%
pest or weed control at 500 g/ha ([9]; 500 g ai/ha, 0 to 100 scale, read-out: Plant response rating, Pigweed): 100%
pest or weed control at 125 g/ha ([10]; 125 g ai/ha, 0 to 100 scale (0 no effect, 100 complete control), read-out: Ragweed plant response rating): 90%
pest or weed control at 500 g/ha ([10]; 500 g ai/ha, 0 to 100 scale, read-out: Plant response rating, Ragweed): 100%
pest or weed control at 125 g/ha ([11]; 125 g ai/ha): 90%
pest or weed control at 500 g/ha ([11]; 500 g ai/ha): 100%
pest or weed control at 125 g/ha ([12]; 125 g ai/ha): 90%
pest or weed control at 500 g/ha ([12]; 500 g ai/ha): 100%
pest or weed control at 125 g/ha ([13]; 125 g ai/ha): 90%
pest or weed control at 500 g/ha ([13]; 500 g ai/ha): 100%
Corn plant response rating (crop injury, 0 = no effect, 100 = complete kill) at 125 g/ha ([14]; 125 g ai/ha): 90%
Corn plant response rating (crop injury, 0 = no effect, 100 = complete kill) at 500 g/ha ([14]; 500 g ai/ha): 100%
pest or weed control at 125 g/ha ([15]; 125 g ai/ha): 100%
pest or weed control at 500 g/ha ([15]; 500 g ai/ha): 100%
pest or weed control at 125 g/ha ([16]; 125 g ai/ha): 90%
pest or weed control at 500 g/ha ([16]; 500 g ai/ha): 100%
pest or weed control at 125 g/ha ([17]; 125 g ai/ha): 100%
pest or weed control at 500 g/ha ([17]; 500 g ai/ha): 60%
pest or weed control at 125 g/ha ([18]; 125 g ai/ha): 100%
pest or weed control at 500 g/ha ([18]; 500 g ai/ha): 100%
pest or weed control at 125 g/ha ([19]; 125 g ai/ha): 100%
pest or weed control at 500 g/ha ([19]; 500 g ai/ha): 100%
plant injury at 125 g/ha ([20]; 125 g ai/ha): 50%
plant injury at 500 g/ha ([20]; 500 g ai/ha): 100%
pest or weed control at 31 g/ha ([21]; 31 g ai/ha): 5%
pest or weed control at 62 g/ha ([21]; 62 g ai/ha): 5%
pest or weed control at 125 g/ha ([21]; 125 g ai/ha): 10%
pest or weed control at 31 g/ha ([22]; 31 g ai/ha): 5%
pest or weed control at 62 g/ha ([22]; 62 g ai/ha): 5%
pest or weed control at 125 g/ha ([22]; 125 g ai/ha): 10%
